What follows are compounds tested against GLP-1R (Homo sapiens, UniProt P43220) (assay: GLP-1R Activation - cAMP Assay). Details: cAMP increase in CHO cells stably expressing GLP-1R; each compound run on one of the two cAMP assays (Assay 1 or Assay 2, not specified).
Assay type: cell-based
Procedure, shortened: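 CHO cells stably expressing GLP-1R, plated at 1,000 cells/well overnight, then equilibrated 1 h in HBSS with 20 mM Hepes and 0.1% BSA. Agonist added as 10-point dose response for 30 min at 37 °C. cAMP measured by HTRF (Cisbio Gs Dynamic kit); EC50 from sigmoidal fit.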

Sequence of GLP-1R (P43220 24-463): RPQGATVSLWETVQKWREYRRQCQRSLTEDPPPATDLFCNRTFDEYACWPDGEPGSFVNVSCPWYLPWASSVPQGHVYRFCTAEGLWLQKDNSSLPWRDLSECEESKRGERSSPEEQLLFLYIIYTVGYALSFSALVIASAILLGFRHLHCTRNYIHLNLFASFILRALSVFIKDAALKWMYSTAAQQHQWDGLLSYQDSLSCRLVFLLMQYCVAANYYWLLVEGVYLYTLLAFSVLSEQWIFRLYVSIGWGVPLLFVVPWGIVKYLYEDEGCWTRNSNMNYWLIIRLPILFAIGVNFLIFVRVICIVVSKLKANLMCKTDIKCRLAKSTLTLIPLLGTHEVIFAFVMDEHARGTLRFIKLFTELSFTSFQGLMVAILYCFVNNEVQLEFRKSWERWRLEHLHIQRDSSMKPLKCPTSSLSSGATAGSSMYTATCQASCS

Structure (SMILES)	EC50
COC(C)(C)C(C)n1c(Cc2cc(F)c(-c3cccc(OCc4ccc(Cl)cc4F)n3)cc2F)nc2ccc(C(=O)O)cc21 (stereo not drawn) [Example 507, 2-(4-(6-((4-chloro-2-fluorobenzyl)oxy)pyridin-2-yl)-2,5-difluorobenzyl)-1-(3-methoxy-3-methylbutan-2-yl)-1H-benzo[d]imidazole-6-carboxylic acid]	0.351 nM
COC(C)(C)Cn1c(Cc2cc(F)c(-c3cccc(OCc4ccc(Cl)cc4F)n3)cc2F)nc2ccc(C(=O)O)cc21 [Example 510, 2-(4-(6-((4-chloro-2-fluorobenzyl)oxy)pyridin-2-yl)-2,5-difluorobenzyl)-1-(2-methoxy-2-methylpropyl)-1H-benzo[d]imidazole-6-carboxylic acid]	0.509 nM
COCCn1c(Cc2cc(F)c(-c3cccc(OCc4ccc(C#N)cc4)n3)cc2F)nc2ccc(C(=O)O)cc21 [Example 511, 2-(4-(6-((4-cyanobenzyl)oxy)pyridin-2-yl)-2,5-difluorobenzyl)-1-(2-methoxyethyl)-1H-benzo[d]imidazole-6-carboxylic acid]	0.588 nM
Cn1nnc2cc(COc3cccc(-c4cc(F)c(Cc5nc6ccc(C(=O)O)cc6n5[C@@H]5COCC5(C)C)cc4F)n3)ccc21 [Example 512, (S)-2-(2,5-difluoro-4-(6-((1-methyl-1H-benzo[d][1,2,3]triazol-5-yl)methoxy)pyridin-2-yl)benzyl)-1-(4,4-dimethyltetrahydrofuran-3-yl)-1H-benzo[d]imidazole-6-carboxylic acid]	0.515 nM
Cn1nnc2ccc(COc3cccc(-c4cc(F)c(Cc5nc6ccc(C(=O)O)cc6n5[C@@H]5COCC5(C)C)cc4F)n3)cc21 [Example 513, (S)-2-(2,5-difluoro-4-(6-((1-methyl-1H-benzo[d][1,2,3]triazol-6-yl)methoxy)pyridin-2-yl)benzyl)-1-(4,4-dimethyltetrahydrofuran-3-yl)-1H-benzo[d]imidazole-6-carboxylic acid]	0.208 nM
COCCn1c(Cc2cc(F)c(-c3cccc(OCc4ccc5c(c4)CN(S(C)(=O)=O)C5)n3)cc2F)nc2c(F)cc(C(=O)O)cc21 [Example 514, 2-(2,5-difluoro-4-(6-((2-(methylsulfonyl)isoindolin-5-yl)methoxy)pyridin-2-yl)benzyl)-4-fluoro-1-(2-methoxyethyl)-1H-benzo[d]imidazole-6-carboxylic acid]	0.152 nM
COC(=O)N1Cc2ccc(COc3nc(-c4cc(F)c(Cc5nc6c(F)cc(C(=O)O)cc6n5C[C@@H]5CCO5)cc4F)ccc3F)cc2C1 [Example 515, (S)-2-(2,5-difluoro-4-(5-fluoro-6-((2-(methoxycarbonyl)isoindolin-5-yl)methoxy)pyridin-2-yl)benzyl)-4-fluoro-1-(oxetan-2-ylmethyl)-1H-benzo[d]imidazole-6-carboxylic acid]	0.074 nM
COC(=O)N1Cc2ccc(COc3nc(-c4cc(F)c(Cc5nc6ccc(C(=O)O)cc6n5C[C@@H]5CCO5)cc4F)ccc3F)cc2C1 [Example 516, (S)-2-(2,5-difluoro-4-(5-fluoro-6-((2-(methoxycarbonyl)isoindolin-5-yl)methoxy)pyridin-2-yl)benzyl)-1-(oxetan-2-ylmethyl)-1H-benzo[d]imidazole-6-carboxylic acid]	0.088 nM
CS(=O)(=O)N1Cc2ccc(COc3cccc(-c4cc(F)c(Cc5nc6c(F)cc(C(=O)O)cc6n5C[C@@H]5CCO5)cc4F)n3)cc2C1 [Example 517, (S)-2-(2,5-difluoro-4-(6-((2-(methylsulfonyl)isoindolin-5-yl)methoxy)pyridin-2-yl)benzyl)-4-fluoro-1-(oxetan-2-ylmethyl)-1H-benzo[d]imidazole-6-carboxylic acid]	0.024 nM
CO[C@@H](C)Cn1c(Cc2cc(F)c(-c3cccc(OCc4ccc(C#N)cc4F)n3)cc2F)nc2c(F)cc(C(=O)O)cc21 [Example 518, (S)-2-(4-(6-((4-cyano-2-fluorobenzyl)oxy)pyridin-2-yl)-2,5-difluorobenzyl)-4-fluoro-1-(2-methoxypropyl)-1H-benzo[d]imidazole-6-carboxylic acid]	0.887 nM
CS(=O)(=O)N1Cc2ccc(COc3cccc(-c4cc(F)c(Cc5nc6ccc(C(=O)O)cc6n5C[C@@H]5CCO5)cc4F)n3)cc2C1 [Example 519, (S)-2-(2,5-difluoro-4-(6-((2-(methylsulfonyl)isoindolin-5-yl)methoxy)pyridin-2-yl)benzyl)-1-(oxetan-2-ylmethyl)-1H-benzo[d]imidazole-6-carboxylic acid]	0.102 nM
O=C(O)c1ccc2nc(Cc3cc(F)c(-c4cccc(OCc5ccc6c(c5)CN(C(=O)C5CC5)C6)n4)cc3F)n(C[C@@H]3CCO3)c2c1 [Example 520, (S)-2-(4-(6-((2-(cyclopropanecarbonyl)isoindolin-5-yl)methoxy)pyridin-2-yl)-2,5-difluorobenzyl)-1-(oxetan-2-ylmethyl)-1H-benzo[d]imidazole-6-carboxylic acid]	0.27 nM
COC(=O)N1Cc2ccc(COc3cccc(-c4cc(F)c(Cc5nc6ccc(C(=O)O)cc6n5C[C@@H]5CCO5)cc4F)n3)cc2C1 [Example 521, (S)-2-(2,5-difluoro-4-(6-((2-(methoxycarbonyl)isoindolin-5-yl)methoxy)pyridin-2-yl)benzyl)-1-(oxetan-2-ylmethyl)-1H-benzo[d]imidazole-6-carboxylic acid]	0.111 nM

Further lines, results first:

EC50	Structure (SMILES)
0.026 nM	CC1(C)COC[C@H]1n1c(Cc2cc(F)c(-c3ccc(F)c(OCc4ccc(C#N)cc4F)n3)cc2F)nc2ccc(C(=O)O)cc21 [Example 496, (S)-2-(4-(6-((4-cyano-2-fluorobenzyl)oxy)-5-fluoropyridin-2-yl)-2,5-difluorobenzyl)-1-(4,4-dimethyltetrahydrofuran-3-yl)-1H-benzo[d]imidazole-6-carboxylic acid]
0.206 nM	CC1(C)COC[C@H]1n1c(Cc2cc(F)c(-c3ccc(F)c(OCc4ccc(Cl)cc4F)n3)cc2F)nc2ccc(C(=O)O)cc21 [Example 497, (S)-2-(4-(6-((4-chloro-2-fluorobenzyl)oxy)-5-fluoropyridin-2-yl)-2,5-difluorobenzyl)-1-(4,4-dimethyltetrahydrofuran-3-yl)-1H-benzo[d]imidazole-6-carboxylic acid]
0.508 nM	CC1(C)COC[C@H]1n1c(Cc2cc(F)c(-c3cccc(OCc4c(F)cc(C#N)cc4F)n3)cc2F)nc2c(F)cc(C(=O)O)cc21 [Example 498, (S)-2-(4-(6-((4-cyano-2,6-difluorobenzyl)oxy)pyridin-2-yl)-2,5-difluorobenzyl)-1-(4,4-dimethyltetrahydrofuran-3-yl)-4-fluoro-1H-benzo[d]imidazole-6-carboxylic acid]
0.508 nM	CC1(C)COCC1n1c(Cc2cc(F)c(-c3cccc(OCc4c(F)cc(Cl)cc4F)n3)cc2F)nc2c(F)cc(C(=O)O)cc21 (stereo not drawn) [Example 499, 2-(4-(6-((4-chloro-2,6-difluorobenzyl)oxy)pyridin-2-yl)-2,5-difluorobenzyl)-1-(4,4-dimethyltetrahydrofuran-3-yl)-4-fluoro-1H-benzo[d]imidazole-6-carboxylic acid]
0.203 nM	CC1(C)COC[C@H]1n1c(Cc2cc(F)c(-c3cccc(OCc4ccc(C#N)c(F)c4F)n3)cc2F)nc2c(F)cc(C(=O)O)cc21 [Example 500, (S)-2-(4-(6-((4-cyano-2,3-difluorobenzyl)oxy)pyridin-2-yl)-2,5-difluorobenzyl)-1-(4,4-dimethyltetrahydrofuran-3-yl)-4-fluoro-1H-benzo[d]imidazole-6-carboxylic Acid]
0.508 nM	CC1(C)COCC1n1c(Cc2cc(F)c(-c3cccc(OCc4cc(F)c(Cl)cc4F)n3)cc2F)nc2c(F)cc(C(=O)O)cc21 (stereo not drawn) [Example 501, 2-(4-(6-((4-chloro-2,5-difluorobenzyl)oxy)pyridin-2-yl)-2,5-difluorobenzyl)-1-(4,4-dimethyltetrahydrofuran-3-yl)-4-fluoro-1H-benzo[d]imidazole-6-carboxylic acid]
0.081 nM	CC1(C)COCC1n1c(Cc2cc(F)c(-c3ccc(F)c(OCc4ccc(C(F)(F)F)cc4F)n3)cc2F)nc2c(F)cc(C(=O)O)cc21 (stereo not drawn) [Example 503, 2-(2,5-difluoro-4-(5-fluoro-6-((2-fluoro-4-(trifluoromethyl)benzyl)oxy)pyridin-2-yl)benzyl)-1-(4,4-dimethyltetrahydrofuran-3-yl)-4-fluoro-1H-benzo[d]imidazole-6-carboxylic acid]
0.148 nM	CC1(C)COCC1n1c(Cc2cc(F)c(-c3ccnc(OCc4ccc(C(F)F)cc4F)n3)cc2F)nc2c(F)cc(C(=O)O)cc21 (stereo not drawn) [Example 504, 2-(4-(2-((4-(difluoromethyl)-2-fluorobenzyl)oxy)pyrimidin-4-yl)-2,5-difluorobenzyl)-1-(4,4-dimethyltetrahydrofuran-3-yl)-4-fluoro-1H-benzo[d]imidazole-6-carboxylic acid]
0.242 nM	CC1(C)COCC1n1c(Cc2cc(F)c(-c3cccc(OCc4ccc(C(F)F)cc4F)n3)cc2F)nc2c(F)cc(C(=O)O)cc21 (stereo not drawn) [Example 506, 2-(4-(6-((4-(difluoromethyl)-2-fluorobenzyl)oxy)pyridin-2-yl)-2,5-difluorobenzyl)-1-(4,4-dimethyltetrahydrofuran-3-yl)-4-fluoro-1H-benzo[d]imidazole-6-carboxylic acid]
0.302 nM	CC1(C)COC[C@H]1n1c(Cc2cc(F)c(-c3cccc(OCc4ccc(Cl)cc4F)c3)cc2F)nc2ccc(C(=O)O)cc21 [Example 508, (S)-2-((3′-((4-chloro-2-fluorobenzyl)oxy)-2,5-difluoro-[1,1′-biphenyl]-4-yl)methyl)-1-(4,4-dimethyltetrahydrofuran-3-yl)-1H-benzo[d]imidazole-6-carboxylic acid]
0.144 nM	CC1(C)COC[C@H]1n1c(Cc2cc(F)c(-c3ccc(F)c(OCc4ccc(Cl)cc4F)c3)cc2F)nc2ccc(C(=O)O)cc21 [Example 509, (S)-2-((3′-((4-chloro-2-fluorobenzyl)oxy)-2,4′,5-trifluoro-[1,1′-biphenyl]-4-yl)methyl)-1-(4,4-dimethyltetrahydrofuran-3-yl)-1H-benzo[d]imidazole-6-carboxylic acid]
